Measurements from patent publication US7282504B2, “Kinase inhibitors” (Amgen Inc., priority 2000, dated 2007).

Columns and labels:
Assay type in all cases: biochemical
[1] = biological target: T1, Itk-1 (Homo sapiens, UniProt Q08881); assay: Kinase inhibition, 33P transfer to plate-bound substrate: Itk-1
T1 construct: Kinases are expressed as either kinase domains or full-length constructs; made in house
T1 sequence (Q08881 1-620): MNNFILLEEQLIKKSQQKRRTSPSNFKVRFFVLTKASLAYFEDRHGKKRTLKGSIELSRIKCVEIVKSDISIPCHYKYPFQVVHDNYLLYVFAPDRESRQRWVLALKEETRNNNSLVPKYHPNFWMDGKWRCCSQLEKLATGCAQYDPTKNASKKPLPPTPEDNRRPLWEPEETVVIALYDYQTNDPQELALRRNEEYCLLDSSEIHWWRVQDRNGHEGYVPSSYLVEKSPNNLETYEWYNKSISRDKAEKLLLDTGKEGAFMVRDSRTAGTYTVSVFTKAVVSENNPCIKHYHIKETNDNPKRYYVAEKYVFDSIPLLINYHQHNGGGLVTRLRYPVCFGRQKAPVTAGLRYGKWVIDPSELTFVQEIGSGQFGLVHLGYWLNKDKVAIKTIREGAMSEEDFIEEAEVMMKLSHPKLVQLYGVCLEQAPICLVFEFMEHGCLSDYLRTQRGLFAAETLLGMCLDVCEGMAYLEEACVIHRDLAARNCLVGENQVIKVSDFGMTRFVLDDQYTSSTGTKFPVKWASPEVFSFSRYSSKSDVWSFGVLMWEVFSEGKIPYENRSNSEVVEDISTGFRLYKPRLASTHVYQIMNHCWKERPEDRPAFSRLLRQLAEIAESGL
Description: (§1) The inhibitor compounds described herein are screened in the following manner. Kinases suitable for use in the following protocol to determine kinase activity of the compounds described herein include, but are not limited to: Lck, Lyn, Src, Fyn, Syk, Zap-70, Itk, Tec, Btk, EGFR, ErbB2, Kdr, Flt-1, Flt-3, Tek, c-Met, InsR, and AKT.
(§2) Kinases are expressed as either kinase domains or full-length constructs fused to glutathione S-transferase (GST) or polyHistidine tagged fusion proteins in either E. coli or Baculovirus-High Five expression systems. They are purified to near homogeneity by affinity chromatography essentially as previously described (Lehr et al., 1996; Gish et al., 1995). In some instances, kinases are co-expressed or mixed with purified or partially purified regulatory polypeptides prior to measurement of activity.
(§3) Kinase activity and inhibition are measured essentially by established protocols (Braunwalder et al., 1996). Briefly, The transfer of ^33PO4 from ATP to the synthetic substrates poly(Glu, Tyr) 4:1 or poly(Arg, Ser) 3:1 attached to the bioactive surface of microtiter plates serves as the basis to evaluate enzyme activity. After an incubation period, the amount of phosphate transferred is measured by first washing the plate with 0.5% phosphoric acid, adding liquid scintillant, and then counting in a liquid scintillation detector. The IC50 is determined by the concentration of compound that causes a 50% reduction in the amount of ^33P incorporated onto the substrate bound to the plate.

[2] = biological target: T2, Lck-2 (Homo sapiens, UniProt P06239); assay: Kinase inhibition, 33P transfer to plate-bound substrate: Lck-2
T2 construct: Kinases are expressed as either kinase domains or full-length constructs; made in house
T2 sequence (P06239 whole entry, the tested form may be a part): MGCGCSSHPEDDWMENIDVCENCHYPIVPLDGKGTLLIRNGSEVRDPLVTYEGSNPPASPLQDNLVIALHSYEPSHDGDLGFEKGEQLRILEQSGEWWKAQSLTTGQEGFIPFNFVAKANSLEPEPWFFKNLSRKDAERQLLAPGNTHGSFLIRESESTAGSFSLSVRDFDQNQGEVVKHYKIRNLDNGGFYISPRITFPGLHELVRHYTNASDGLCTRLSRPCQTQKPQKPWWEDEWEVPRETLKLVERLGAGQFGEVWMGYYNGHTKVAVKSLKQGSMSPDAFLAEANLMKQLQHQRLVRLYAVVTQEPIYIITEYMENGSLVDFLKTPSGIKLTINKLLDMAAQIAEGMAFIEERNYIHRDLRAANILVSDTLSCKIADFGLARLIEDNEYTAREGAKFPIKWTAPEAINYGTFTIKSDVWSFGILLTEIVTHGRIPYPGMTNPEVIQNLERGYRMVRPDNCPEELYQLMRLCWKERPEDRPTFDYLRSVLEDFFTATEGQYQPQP
Description: as §1, §2, §3

[3] = biological target: T3, Met-1 (Homo sapiens, UniProt P08581); assay: Kinase inhibition, 33P transfer to plate-bound substrate: Met-1
T3 construct: Kinases are expressed as either kinase domains or full-length constructs; made in house
Description: as §1, §2, §3

[4] = biological target: T4, Lck-1 (Homo sapiens, UniProt P06239); assay: Kinase inhibition, 33P transfer to plate-bound substrate: Lck-1
T4 construct: Kinases are expressed as either kinase domains or full-length constructs; made in house
T4 sequence (P06239 whole entry, the tested form may be a part): as above
Description: as §1, §2, §3

[5] = biological target: T5, KDR-1 (Homo sapiens, UniProt P35968); assay: Kinase inhibition, 33P transfer to plate-bound substrate: KDR-1
T5 construct: Kinases are expressed as either kinase domains or full-length constructs; made in house
Description: as §1, §2, §3

[6] = biological target: T6, EGFR-1 (Homo sapiens, UniProt P00533); assay: Kinase inhibition, 33P transfer to plate-bound substrate: EGFR-1
T6 construct: Kinases are expressed as either kinase domains or full-length constructs; made in house
T6 sequence (P00533 25-1210): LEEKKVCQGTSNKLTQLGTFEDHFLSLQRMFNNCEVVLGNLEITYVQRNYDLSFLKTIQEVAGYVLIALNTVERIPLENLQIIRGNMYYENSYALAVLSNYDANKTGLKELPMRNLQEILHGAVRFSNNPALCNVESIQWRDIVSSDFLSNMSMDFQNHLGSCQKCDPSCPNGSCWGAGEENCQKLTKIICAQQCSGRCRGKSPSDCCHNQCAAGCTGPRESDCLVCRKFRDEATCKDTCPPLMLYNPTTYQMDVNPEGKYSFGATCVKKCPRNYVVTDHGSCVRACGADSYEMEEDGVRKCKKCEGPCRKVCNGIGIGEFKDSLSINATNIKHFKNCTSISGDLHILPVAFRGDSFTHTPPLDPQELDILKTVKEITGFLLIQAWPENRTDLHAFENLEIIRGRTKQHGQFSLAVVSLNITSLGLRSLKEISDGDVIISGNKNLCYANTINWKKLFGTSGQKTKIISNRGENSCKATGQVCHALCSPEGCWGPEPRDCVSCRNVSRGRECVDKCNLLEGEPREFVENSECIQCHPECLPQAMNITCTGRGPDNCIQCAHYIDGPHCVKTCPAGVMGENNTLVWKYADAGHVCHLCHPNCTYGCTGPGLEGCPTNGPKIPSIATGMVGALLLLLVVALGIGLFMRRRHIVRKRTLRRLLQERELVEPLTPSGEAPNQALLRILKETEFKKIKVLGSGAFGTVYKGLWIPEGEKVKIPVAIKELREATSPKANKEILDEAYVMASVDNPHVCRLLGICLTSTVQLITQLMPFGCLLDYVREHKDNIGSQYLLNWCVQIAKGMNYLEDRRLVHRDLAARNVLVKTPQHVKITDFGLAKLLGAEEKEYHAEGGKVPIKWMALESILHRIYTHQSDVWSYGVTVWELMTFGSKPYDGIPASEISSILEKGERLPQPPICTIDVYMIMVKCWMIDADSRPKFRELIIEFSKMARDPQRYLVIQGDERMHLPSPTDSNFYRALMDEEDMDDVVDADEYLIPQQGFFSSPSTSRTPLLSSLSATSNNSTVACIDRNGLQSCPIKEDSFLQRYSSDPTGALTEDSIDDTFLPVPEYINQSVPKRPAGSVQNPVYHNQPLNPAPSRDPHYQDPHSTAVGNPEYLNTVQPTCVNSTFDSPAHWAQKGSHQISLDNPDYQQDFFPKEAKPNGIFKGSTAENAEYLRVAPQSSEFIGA
Description: as §1, §2, §3

[7] = biological target: T7, IGFR-1 (Homo sapiens, UniProt P08069); assay: Kinase inhibition, 33P transfer to plate-bound substrate: IGFR-1
T7 construct: Kinases are expressed as either kinase domains or full-length constructs; made in house
Description: as §1, §2, §3

[8] = biological target: T8, Akt3-1 (Homo sapiens, UniProt Q9Y243); assay: Kinase inhibition, 33P transfer to plate-bound substrate: Akt3-1
T8 construct: Kinases are expressed as either kinase domains or full-length constructs; made in house
T8 sequence (Q9Y243 whole entry, the tested form may be a part): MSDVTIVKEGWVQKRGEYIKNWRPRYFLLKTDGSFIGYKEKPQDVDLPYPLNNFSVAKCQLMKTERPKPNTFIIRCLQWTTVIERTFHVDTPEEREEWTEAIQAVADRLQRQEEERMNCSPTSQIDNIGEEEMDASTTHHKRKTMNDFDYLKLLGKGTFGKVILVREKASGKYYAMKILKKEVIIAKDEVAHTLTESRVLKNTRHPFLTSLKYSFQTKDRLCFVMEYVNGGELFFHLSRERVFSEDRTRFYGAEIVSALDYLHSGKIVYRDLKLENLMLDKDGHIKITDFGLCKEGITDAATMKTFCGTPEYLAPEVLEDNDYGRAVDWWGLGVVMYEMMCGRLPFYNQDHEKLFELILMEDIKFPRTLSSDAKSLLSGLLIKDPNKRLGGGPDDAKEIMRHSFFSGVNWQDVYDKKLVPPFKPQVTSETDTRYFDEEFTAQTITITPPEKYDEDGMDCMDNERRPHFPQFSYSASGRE
Description: as §1, §2, §3

[9] = biological target: T9, PDGFRB (Homo sapiens, UniProt P09619); assay: Kinase inhibition, 33P transfer to plate-bound substrate: PDGFRB
T9 construct: Kinases are expressed as either kinase domains or full-length constructs; made in house
T9 sequence (P09619 33-1106, species assumed): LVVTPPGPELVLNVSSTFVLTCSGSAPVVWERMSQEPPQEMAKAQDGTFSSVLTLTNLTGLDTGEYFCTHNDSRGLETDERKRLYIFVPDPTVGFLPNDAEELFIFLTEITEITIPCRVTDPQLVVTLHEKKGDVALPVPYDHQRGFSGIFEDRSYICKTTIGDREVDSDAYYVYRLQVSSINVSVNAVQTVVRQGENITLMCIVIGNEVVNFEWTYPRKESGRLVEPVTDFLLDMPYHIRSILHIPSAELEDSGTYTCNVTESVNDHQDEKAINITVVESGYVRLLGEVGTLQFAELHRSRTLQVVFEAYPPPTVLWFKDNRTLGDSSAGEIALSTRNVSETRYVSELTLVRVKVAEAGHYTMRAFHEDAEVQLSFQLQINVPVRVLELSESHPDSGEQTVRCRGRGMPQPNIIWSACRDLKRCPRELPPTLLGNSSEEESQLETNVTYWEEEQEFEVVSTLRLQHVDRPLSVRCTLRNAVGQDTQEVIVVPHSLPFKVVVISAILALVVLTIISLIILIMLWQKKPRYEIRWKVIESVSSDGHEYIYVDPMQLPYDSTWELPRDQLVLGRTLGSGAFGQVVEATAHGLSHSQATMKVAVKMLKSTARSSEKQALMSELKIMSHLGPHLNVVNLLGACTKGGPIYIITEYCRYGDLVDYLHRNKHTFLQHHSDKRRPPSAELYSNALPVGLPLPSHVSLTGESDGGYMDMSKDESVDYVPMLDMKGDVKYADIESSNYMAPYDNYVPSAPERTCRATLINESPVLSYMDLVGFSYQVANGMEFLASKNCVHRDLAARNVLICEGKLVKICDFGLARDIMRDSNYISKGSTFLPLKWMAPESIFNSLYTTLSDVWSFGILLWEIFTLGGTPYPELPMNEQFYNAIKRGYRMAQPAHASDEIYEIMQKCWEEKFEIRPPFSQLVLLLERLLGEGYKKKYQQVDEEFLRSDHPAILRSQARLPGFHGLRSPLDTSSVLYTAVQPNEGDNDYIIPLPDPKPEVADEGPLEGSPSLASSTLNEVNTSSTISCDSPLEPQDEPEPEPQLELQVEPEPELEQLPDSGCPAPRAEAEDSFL
Description: as §1, §2, §3

[10] = biological target: T10, Zap-1 (Homo sapiens, UniProt P43403); assay: Kinase inhibition, 33P transfer to plate-bound substrate: Zap-1
T10 construct: Kinases are expressed as either kinase domains or full-length constructs; made in house
T10 sequence (P43403 1-619): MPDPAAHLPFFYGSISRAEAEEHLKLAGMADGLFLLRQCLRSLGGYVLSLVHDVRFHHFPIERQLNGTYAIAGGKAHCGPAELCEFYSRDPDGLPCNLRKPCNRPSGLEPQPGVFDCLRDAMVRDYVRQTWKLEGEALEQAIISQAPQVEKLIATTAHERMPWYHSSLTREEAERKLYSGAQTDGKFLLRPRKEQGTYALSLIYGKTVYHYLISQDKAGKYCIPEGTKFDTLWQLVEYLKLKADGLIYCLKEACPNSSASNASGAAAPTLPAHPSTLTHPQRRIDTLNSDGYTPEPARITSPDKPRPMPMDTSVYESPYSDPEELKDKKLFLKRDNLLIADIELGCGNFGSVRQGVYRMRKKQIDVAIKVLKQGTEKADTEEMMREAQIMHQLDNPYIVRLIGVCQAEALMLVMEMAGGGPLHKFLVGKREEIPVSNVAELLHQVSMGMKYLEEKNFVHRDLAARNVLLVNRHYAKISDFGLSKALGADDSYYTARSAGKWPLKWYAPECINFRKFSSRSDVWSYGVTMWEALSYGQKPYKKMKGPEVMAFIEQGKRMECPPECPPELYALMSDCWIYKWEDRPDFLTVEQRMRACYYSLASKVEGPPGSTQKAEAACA
Description: as §1, §2, §3

[11] = biological target: T11, ErbB2-1 (Homo sapiens, UniProt P04626); assay: Kinase inhibition, 33P transfer to plate-bound substrate: ErbB2-1
T11 construct: Kinases are expressed as either kinase domains or full-length constructs; made in house
T11 sequence (P04626 23-1255): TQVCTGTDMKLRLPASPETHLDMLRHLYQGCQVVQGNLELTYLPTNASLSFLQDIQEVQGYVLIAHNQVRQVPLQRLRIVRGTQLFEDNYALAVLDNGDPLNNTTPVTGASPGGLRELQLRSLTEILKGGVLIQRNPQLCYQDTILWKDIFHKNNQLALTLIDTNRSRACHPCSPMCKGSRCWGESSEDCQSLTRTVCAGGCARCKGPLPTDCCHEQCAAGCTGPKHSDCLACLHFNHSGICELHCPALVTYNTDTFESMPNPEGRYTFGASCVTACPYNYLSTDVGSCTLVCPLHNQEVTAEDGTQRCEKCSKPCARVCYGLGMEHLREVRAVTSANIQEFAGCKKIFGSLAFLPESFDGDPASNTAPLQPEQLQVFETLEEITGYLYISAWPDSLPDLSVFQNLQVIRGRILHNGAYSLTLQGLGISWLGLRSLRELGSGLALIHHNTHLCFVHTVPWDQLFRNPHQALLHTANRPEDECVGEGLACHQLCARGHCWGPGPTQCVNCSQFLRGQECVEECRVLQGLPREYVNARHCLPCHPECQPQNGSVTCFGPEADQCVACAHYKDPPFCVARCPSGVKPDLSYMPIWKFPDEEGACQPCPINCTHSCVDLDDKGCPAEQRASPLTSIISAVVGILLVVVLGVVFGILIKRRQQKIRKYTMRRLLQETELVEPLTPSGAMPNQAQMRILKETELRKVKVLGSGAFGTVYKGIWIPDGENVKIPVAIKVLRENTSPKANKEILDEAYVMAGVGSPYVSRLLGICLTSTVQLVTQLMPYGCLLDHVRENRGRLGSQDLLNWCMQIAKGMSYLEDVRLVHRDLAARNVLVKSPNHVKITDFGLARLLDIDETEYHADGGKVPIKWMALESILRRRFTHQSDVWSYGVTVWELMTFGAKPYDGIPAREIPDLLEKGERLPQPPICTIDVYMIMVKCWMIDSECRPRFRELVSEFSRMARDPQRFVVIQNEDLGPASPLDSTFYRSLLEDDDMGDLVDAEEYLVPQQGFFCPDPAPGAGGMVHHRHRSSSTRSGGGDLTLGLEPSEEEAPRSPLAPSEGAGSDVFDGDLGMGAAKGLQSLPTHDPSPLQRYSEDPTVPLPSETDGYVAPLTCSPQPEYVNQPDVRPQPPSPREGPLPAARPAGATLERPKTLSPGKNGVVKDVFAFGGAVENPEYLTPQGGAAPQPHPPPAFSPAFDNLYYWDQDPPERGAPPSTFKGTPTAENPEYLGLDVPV
Description: as §1, §2, §3

[12] = biological target: T12, Tek-1 (Homo sapiens, UniProt Q02763); assay: Kinase inhibition, 33P transfer to plate-bound substrate: Tek-1
T12 construct: Kinases are expressed as either kinase domains or full-length constructs; made in house
Description: as §1, §2, §3

[13] = biological target: T13, Fyn-1 (Homo sapiens, UniProt P06241); assay: Kinase inhibition, 33P transfer to plate-bound substrate: Fyn-1
T13 construct: Kinases are expressed as either kinase domains or full-length constructs; made in house
Description: as §1, §2, §3

[14] = biological target: T14, FGFR1-1 (Homo sapiens, UniProt P11362); assay: Kinase inhibition, 33P transfer to plate-bound substrate: FGFR1-1
T14 construct: Kinases are expressed as either kinase domains or full-length constructs; made in house
Description: as §1, §2, §3

[15] = biological target: T15, Lyn-1 (Homo sapiens, UniProt P07948); assay: Kinase inhibition, 33P transfer to plate-bound substrate: Lyn-1
T15 construct: Kinases are expressed as either kinase domains or full-length constructs; made in house
T15 sequence (P07948 whole entry, the tested form may be a part): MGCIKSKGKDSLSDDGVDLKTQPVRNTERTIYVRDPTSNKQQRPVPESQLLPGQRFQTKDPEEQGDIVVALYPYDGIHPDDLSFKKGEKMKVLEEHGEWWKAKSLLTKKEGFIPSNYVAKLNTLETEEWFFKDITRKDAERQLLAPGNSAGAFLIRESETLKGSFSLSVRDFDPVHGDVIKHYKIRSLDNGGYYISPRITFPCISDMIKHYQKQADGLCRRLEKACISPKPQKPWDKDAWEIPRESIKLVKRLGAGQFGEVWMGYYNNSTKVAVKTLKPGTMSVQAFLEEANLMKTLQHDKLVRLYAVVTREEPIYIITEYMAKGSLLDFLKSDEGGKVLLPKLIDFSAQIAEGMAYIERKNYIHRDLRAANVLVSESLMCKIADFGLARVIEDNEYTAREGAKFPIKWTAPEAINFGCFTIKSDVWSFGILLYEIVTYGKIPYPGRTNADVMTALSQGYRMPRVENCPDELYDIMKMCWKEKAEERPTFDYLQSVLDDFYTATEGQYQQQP
Description: as §1, §2, §3

[16] = biological target: T16, ErbB4-1 (Homo sapiens, UniProt Q15303); assay: Kinase inhibition, 33P transfer to plate-bound substrate: ErbB4-1
T16 construct: Kinases are expressed as either kinase domains or full-length constructs; made in house
Description: as §1, §2, §3

[17] = biological target: T17, Src-1 (Homo sapiens, UniProt P12931); assay: Kinase inhibition, 33P transfer to plate-bound substrate: Src-1
T17 construct: Kinases are expressed as either kinase domains or full-length constructs; made in house
Description: as §1, §2, §3

[18] = biological target: T18, Flt1-1 (Homo sapiens, UniProt P17948); assay: Kinase inhibition, 33P transfer to plate-bound substrate: Flt1-1
T18 construct: Kinases are expressed as either kinase domains or full-length constructs; made in house
Description: as §1, §2, §3

[19] = biological target: T19, Ret-1 (Homo sapiens, UniProt P07949); assay: Kinase inhibition, 33P transfer to plate-bound substrate: Ret-1
T19 construct: Kinases are expressed as either kinase domains or full-length constructs; made in house
Description: as §1, §2, §3

[20] = biological target: T20, InsR-1 (Homo sapiens, UniProt P06213); assay: Kinase inhibition, 33P transfer to plate-bound substrate: InsR-1
T20 construct: Kinases are expressed as either kinase domains or full-length constructs; made in house
Description: as §1, §2, §3

[21] = biological target: T21, Hck-1 (Homo sapiens, UniProt P08631); assay: Kinase inhibition, 33P transfer to plate-bound substrate: Hck-1
T21 construct: Kinases are expressed as either kinase domains or full-length constructs; made in house
Description: as §1, §2
as §3, with “The IC50 is determined by the concentration of compound that causes a 50% reduction in the amount of ^33P incorporated onto the substrate bound to the plate.” left out

SMILES | IC50 [1] [µM] | IC50 [2] [µM] | IC50 [3] [µM] | IC50 [4] [µM] | IC50 [5] [µM] | IC50 [6] [µM] | IC50 [7] [µM] | IC50 [8] [µM] | IC50 [9] [µM] | IC50 [10] [µM] | IC50 [11] [µM] | other results
COc1cc(Nc2ccnc(Nc3ccc(Oc4ccccc4)cc3)n2)cc(OC)c1OC [Compound 59] | 5 to 10 | < 1.5 | 5 to 10 | 5 to 10 | 5 to 10 | 5 to 10 | – | – | – | – | – | –
Cc1cccc(Nc2ccnc(Nc3cccc(Br)c3)n2)c1 [Compound 60] | 1.5 to 5 | < 1.5 | 5 to 10 | ≥ 10 | 1.5 to 5 | ≥ 10 | < 1.5 | ≥ 10 | 1.5 to 5 | – | – | –
COc1cc(Nc2nccc(-n3ccc(-c4ccc(Cl)cc4)n3)n2)cc(OC)c1OC [Compound 33] | ≥ 10 | ≥ 10 | ≥ 10 | ≥ 10 | ≥ 10 | ≥ 10 | ≥ 10 | ≥ 10 | ≥ 10 | 5 to 10 | ≥ 10 | –
COc1ccc(-c2ccn(-c3ccnc(Nc4cc(OC)c(OC)c(OC)c4)n3)n2)cc1 [Compound 34] | ≥ 10 | ≥ 10 | ≥ 10 | ≥ 10 | ≥ 10 | 5 to 10 | ≥ 10 | ≥ 10 | ≥ 10 | 5 to 10 | ≥ 10 | –
COc1cc(Nc2nccc(-n3c(=O)oc4ccccc43)n2)cc(OC)c1OC [Compound 25] | ≥ 10 | ≥ 10 | ≥ 10 | ≥ 10 | ≥ 10 | ≥ 10 | ≥ 10 | ≥ 10 | ≥ 10 | ≥ 10 | ≥ 10 | IC50 [12]: ≥ 10 µM
COc1cc(Nc2nccc(Nc3cc(C(C)(C)C)n[nH]3)n2)cc(OC)c1OC [Compound 35] | 1.5 to 5 | < 1.5 | < 1.5 | < 1.5 | 1.5 to 5 | 5 to 10 | < 1.5 | ≥ 10 | 1.5 to 5 | ≥ 10 | ≥ 10 | IC50 [13]: 1.5 to 5 µM; IC50 [14]: 5 to 10 µM; IC50 [15]: < 1.5 µM; IC50 [16]: 5 to 10 µM; IC50 [17]: < 1.5 µM; IC50 [18]: 5 to 10 µM; IC50 [19]: 1.5 to 5 µM; IC50 [20]: < 1.5 µM
COc1cc(Nc2nccc(-n3ccc4ccccc43)n2)cc(OC)c1OC [Compound 31] | 1.5 to 5 | < 1.5 | 1.5 to 5 | < 1.5 | < 1.5 | ≥ 10 | – | ≥ 10 | < 1.5 | ≥ 10 | – | IC50 [13]: < 1.5 µM; IC50 [14]: < 1.5 µM; IC50 [15]: < 1.5 µM; IC50 [16]: 1.5 to 5 µM; IC50 [17]: < 1.5 µM; IC50 [21]: ≥ 10 µM; IC50 [12]: 5 to 10 µM; IC50 [18]: < 1.5 µM
